Assay results from patent US20240327417A1, “HETEROCYCLIC COMPOUNDS” (BeiGene Switzerland GmbH, priority 2021, published 2024).

Key:
[1] = biological target: T1, Full length DGKα (D21-10BG, SignalChem) (Homo sapiens, UniProt P23743); assay: Biochemical DGK IC50 assay (ADP-Glo, lipid micelle substrate), DGKα; conditions: 7.5 nM enzyme, 140 μM ATP, 80 μM DAG, 1 hour preincubation, 1 hour reaction, room temperature, read-out: IC50s for DGKα
T1 construct: Full length DGKα (D21-10BG, SignalChem); purchased SignalChem D21-10BG
Outline: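 Full-length enzyme was assayed by ADP-Glo on DAG/PS lipid micelles at room temperature in HEPES/MgCl2/CaCl2 buffer with BSA, Na3VO4 and Tween-20, using a 1 h reaction and luminescence read-out.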

[2] = biological target: T2, Full length DGKζ (in-house protein M1-V929) (Homo sapiens, UniProt Q13574); assay: Biochemical DGK IC50 assay (ADP-Glo, lipid micelle substrate), DGKζ; conditions: 0.5 nM enzyme, 140 μM ATP, 80 μM DAG, 1 hour preincubation, 1 hour reaction, room temperature, read-out: IC50s for DGKζ
T2 construct: His (N); TEV cleavage site (N); made in house; host or cells: Sf9 insect cells (baculovirus, Bac-to-Bac)
Outline: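 In-house full-length human DGKζ, baculovirus-expressed in Sf9 cells, was assayed with a DAG/PS lipid micelle substrate at room temperature. Buffer was 50 mM HEPES, 10 mM MgCl2, 0.01% BSA, 0.1 mM Na3VO4, 0.005% Tween-20, 0.01 mM CaCl2, with final compound 1.55˜10000 nM or 23.3˜150000 nM.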

T2 sequence (Q13574 1-929 isoform Q13574-4): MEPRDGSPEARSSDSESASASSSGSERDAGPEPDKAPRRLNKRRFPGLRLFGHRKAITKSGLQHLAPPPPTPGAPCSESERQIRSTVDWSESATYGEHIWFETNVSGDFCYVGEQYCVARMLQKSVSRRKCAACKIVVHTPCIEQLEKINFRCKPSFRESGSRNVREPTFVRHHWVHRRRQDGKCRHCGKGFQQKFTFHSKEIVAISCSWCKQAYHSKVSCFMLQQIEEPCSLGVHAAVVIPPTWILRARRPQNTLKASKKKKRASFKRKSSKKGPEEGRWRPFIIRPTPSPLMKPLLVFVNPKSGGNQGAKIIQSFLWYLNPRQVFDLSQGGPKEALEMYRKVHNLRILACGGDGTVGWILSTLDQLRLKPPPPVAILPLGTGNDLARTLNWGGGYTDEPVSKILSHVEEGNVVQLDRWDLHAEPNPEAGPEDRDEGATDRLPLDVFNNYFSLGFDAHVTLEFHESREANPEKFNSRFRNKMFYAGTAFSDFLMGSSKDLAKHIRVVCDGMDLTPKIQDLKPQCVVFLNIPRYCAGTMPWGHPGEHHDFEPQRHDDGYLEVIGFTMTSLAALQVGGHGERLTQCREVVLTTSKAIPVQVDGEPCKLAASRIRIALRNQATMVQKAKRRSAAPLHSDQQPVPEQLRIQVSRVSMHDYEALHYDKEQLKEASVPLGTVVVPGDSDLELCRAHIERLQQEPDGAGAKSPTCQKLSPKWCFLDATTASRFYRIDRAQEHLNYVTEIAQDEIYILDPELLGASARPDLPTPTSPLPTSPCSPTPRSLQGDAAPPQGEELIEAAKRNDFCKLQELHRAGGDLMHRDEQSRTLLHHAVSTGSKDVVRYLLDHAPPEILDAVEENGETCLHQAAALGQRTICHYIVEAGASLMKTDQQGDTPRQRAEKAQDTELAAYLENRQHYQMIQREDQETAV
T1 sequence (P23743 whole entry): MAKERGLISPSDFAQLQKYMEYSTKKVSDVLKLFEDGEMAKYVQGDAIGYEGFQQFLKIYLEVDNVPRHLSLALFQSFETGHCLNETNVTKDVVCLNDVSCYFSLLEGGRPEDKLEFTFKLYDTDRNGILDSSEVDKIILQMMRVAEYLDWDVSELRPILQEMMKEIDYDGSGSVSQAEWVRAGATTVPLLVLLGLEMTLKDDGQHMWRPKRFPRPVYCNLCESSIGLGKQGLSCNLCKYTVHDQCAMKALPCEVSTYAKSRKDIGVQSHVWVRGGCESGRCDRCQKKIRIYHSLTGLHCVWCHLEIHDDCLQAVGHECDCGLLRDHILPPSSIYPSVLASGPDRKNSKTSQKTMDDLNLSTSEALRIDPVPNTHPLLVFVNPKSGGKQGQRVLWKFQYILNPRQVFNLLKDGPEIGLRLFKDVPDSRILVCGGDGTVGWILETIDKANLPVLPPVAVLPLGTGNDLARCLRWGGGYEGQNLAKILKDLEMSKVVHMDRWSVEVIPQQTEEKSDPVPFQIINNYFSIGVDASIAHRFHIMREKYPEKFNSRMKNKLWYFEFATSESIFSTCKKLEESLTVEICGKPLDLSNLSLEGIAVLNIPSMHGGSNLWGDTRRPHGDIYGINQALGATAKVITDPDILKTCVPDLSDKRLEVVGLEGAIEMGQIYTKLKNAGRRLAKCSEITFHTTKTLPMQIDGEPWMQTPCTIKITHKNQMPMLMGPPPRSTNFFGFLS

IC50 [1]	IC50 [2]	Structure (SMILES)
78 nM	8100 nM	CC[C@H]1CN(C(C)c2ccc3nc(C)sc3n2)[C@H](CC)CN1c1cc(=O)n(C)n2cc(C=NOC)nc12 (single isomer, unassigned) [Compound A124bc]
235 nM	215 nM	CC[C@H]1CN(C(C)c2ccc3ncsc3c2)[C@H](CC)CN1c1cc(=O)n(C)n2cc(CC#N)nc12 (single isomer, unassigned) [Compound A53b]
171 nM	73 nM	CCC(c1ccc(C2CC2)nc1)N1C[C@H](CC)N(c2cc(=O)n(C)n3cc(CC#N)nc23)C[C@H]1CC (single isomer, unassigned) [Compound A89a]
47 nM	7 nM	CC[C@H]1CN(C(C)c2ccc3scnc3c2)[C@H](CC)CN1c1cc(=O)n(C)n2cc(CC#N)nc12 (single isomer, unassigned) [Compound A65a]
2250 nM	3 nM	CC(c1ccc2c(c1)OC(C)(C)CO2)N1C[C@H](C)N(c2c(C#N)c(=O)n(C)n3cc(CC#N)nc23)C[C@H]1C (single isomer, unassigned) [Compound A27a]
> 10000 nM	> 10000 nM	CC(c1ccc2nccnc2c1)N1C[C@H](C)N(c2cc(=O)n(C)n3cc(C[S+](C)[O-])nc23)C[C@H]1C (stereo partly drawn) [Compound A10, 8-((2S,5R)-2,5-dimethyl-4-(1-(quinoxalin-6-yl)ethyl)piperazin-1-yl)-5-methyl-2-((methylsulfinyl)methyl)imidazo[1,2-b]pyridazin-6(5H)-one]
749 nM	> 10000 nM	CC[C@H]1CN(C(C)c2ccc3nc(C)sc3c2)[C@H](CC)CN1c1cc(=O)n(C)n2cc(C=NOC)nc12 (single isomer, unassigned) [Compound A123d]
74 nM	313 nM	CC[C@@H]1CN(c2cc(=O)n(C)n3cc(C=NOC)nc23)[C@@H](C)CN1C(C)c1ccc2nccnc2c1 (single isomer, unassigned) [Compound A9b]
39 nM	45 nM	CCC(c1ccc2nc(C)sc2n1)N1C[C@H](CC)N(c2cc(=O)n(C)n3cc(CC#N)nc23)C[C@H]1C (single isomer, unassigned) [Compound A98b]
1220 nM	2160 nM	CC[C@H]1CN(C(C)c2ccc3nc(C)sc3n2)[C@H](CC)CN1c1cc(=O)n(C)n2cc(CC#N)nc12 (single isomer, unassigned) [Compound A58a]
296 nM	474 nM	CC(c1ccc2c(c1)OCO2)N1C[C@H](C)N(c2cc(=O)n(C)n3cc(CC#N)nc23)C[C@H]1C (stereo partly drawn) [Compound A29, 2-(8-((2S,5R)-4-(1-(benzo[d][1,3]dioxol-5-yl)ethyl)-2,5-dimethylpiperazin-1-yl)-5-methyl-6-oxo-5,6-dihydroimidazo[1,2-b]pyridazin-2-yl)acetonitrile]
7.9 nM	6.8 nM	CC[C@H]1CN(C(C)c2ccc3ncsc3n2)[C@H](CC)CN1c1cc(=O)n(C)n2cc(CC#N)nc12 (single isomer, unassigned) [Compound A57a]
4410 nM	2930 nM	CC[C@@H]1CN(c2cc(=O)n(C)n3cc(CC#N)nc23)[C@@H](C)CN1C(C)c1cc2sc(C)nc2cc1F (single isomer, unassigned) [Compound A60b]
> 10000 nM	> 10000 nM	CC(C#N)c1cn2c(n1)c(N1C[C@@H](C)N(C(C)c3ccc4nccnc4c3)C[C@@H]1C)cc(=O)n2C (stereo partly drawn) [Compound A6, 2-(8-((2S,5R)-2,5-dimethyl-4-(1-(quinoxalin-6-yl)ethyl)piperazin-1-yl)-5-methyl-6-oxo-5,6-dihydroimidazo[1,2-b]pyridazin-2-yl)propanenitrile]
1490 nM	> 10000 nM	CC[C@@H]1CN(c2cc(=O)n(C)n3cc(CC#N)nc23)[C@@H](C)CN1C(C)c1ccc(C2CC2)nc1 (single isomer, unassigned) [Compound A43b]
113 nM	28 nM	CC[C@H]1CN(C(C)c2ccc3nc(C4CC4)sc3n2)[C@H](CC)CN1c1cc(=O)n(C)n2cc(CC#N)nc12 (single isomer, unassigned) [Compound A109b]
3310 nM	5090 nM	CC[C@@H]1CN(c2cc(=O)n(C)n3cc(CC#N)nc23)[C@@H](C)CN1C(C)c1ccc2nc(C)sc2n1 (single isomer, unassigned) [Compound A84b]
1490 nM	1800 nM	CC[C@H]1CN(C(C)c2ccc3nc(C4CC4)sc3n2)[C@H](CC)CN1c1cc(=O)n(C)n2cc(CC#N)nc12 (single isomer, unassigned) [Compound A109a]

IC50 [1]	IC50 [2]	Structure (SMILES)
1070 nM	1170 nM	CC[C@H]1CN(C(C)c2ccc3nc(CC4CC4)sc3n2)[C@H](CC)CN1c1cc(=O)n(C)n2cc(CC#N)nc12 (single isomer, unassigned) [Compound A110a]
217 nM	6 nM	CC[C@H]1CN(C(C)c2ccc3nccnc3c2)[C@H](CC)CN1c1cc(=O)n(C)n2cc(CC#N)nc12 (single isomer, unassigned) [Compound A14a]
177 nM	77 nM	CC[C@H]1CN(C(C)c2ccc(C3CC3)nc2)[C@H](CC)CN1c1c(F)c(=O)n(C)n2cc(CC#N)nc12 (single isomer, unassigned) [Compound A73a]
297 nM	124 nM	CC[C@H]1CN(C(C)c2ccc(C(C)(C)C#N)nc2)[C@H](CC)CN1c1cc(=O)n(C)n2cc(CC#N)nc12 (stereo partly drawn) [Compound A40, 2-(5-(1-((2R,5S)-4-(2-(cyanomethyl)-5-methyl-6-oxo-5,6-dihydroimidazo[1,2-b]pyridazin-8-yl)-2,5-diethylpiperazin-1-yl)ethyl)pyridin-2-yl)-2-methylpropanenitrile]
72 nM	39 nM	CC[C@H]1CN(C(C)c2ccc(C3(F)CC3)cc2)[C@H](CC)CN1c1cc(=O)n(C)n2cc(CC#N)nc12 (stereo partly drawn) [Compound A88, 2-(8-((2S,5R)-2,5-diethyl-4-(1-(4-(1-fluorocyclopropyl)phenyl)ethyl)piperazin-1-yl)-5-methyl-6-oxo-5,6-dihydroimidazo[1,2-b]pyridazin-2-yl)acetonitrile]
2110 nM	2140 nM	CC(c1ccc2c(c1)OC(C)(C)CO2)N1C[C@H](C)N(c2c(F)c(=O)n(C)n3cc(CC#N)nc23)C[C@H]1C (single isomer, unassigned) [Compound A26b]
169 nM	52 nM	CC[C@@H]1CN(c2cc(=O)n(C)n3cc(CC#N)nc23)[C@@H](C)CN1C(C)c1ccc2nc(C)sc2n1 (single isomer, unassigned) [Compound A84a]
1300 nM	1050 nM	CC[C@H]1CN(C(C)c2ccc(C3CC3)nc2)[C@H](CC)CN1c1c(C#N)c(=O)n(C)n2cc(CC#N)nc12 (single isomer, unassigned) [Compound A75b]
1640 nM	1440 nM	CC[C@H]1CN(C(C)c2ccc3scnc3c2F)[C@H](CC)CN1c1cc(=O)n(C)n2cc(CC#N)nc12 (single isomer, unassigned) [Compound A66b]
24 nM	6.5 nM	CC[C@H]1CN(C(C)c2ccc3ncsc3c2)[C@H](CC)CN1c1cc(=O)n(C)n2cc(CC#N)nc12 (stereo partly drawn) [Compound A53, 2-(8-((2S,5R)-4-(1-(benzo[d]thiazol-6-yl)ethyl)-2,5-diethylpiperazin-1-yl)-5-methyl-6-oxo-5,6-dihydroimidazo[1,2-b]pyridazin-2-yl)acetonitrile]
171 nM	108 nM	CC[C@@H]1CN(c2cc(=O)n(C)n3cc(CC#N)nc23)[C@@H](C)CN1C(C)c1ccc(C(F)(F)F)cc1F (single isomer, unassigned) [Compound A17a]
102 nM	244 nM	CC[C@H]1CN(C(C)c2ccc(C3CC3(F)F)nc2)[C@H](CC)CN1c1cc(=O)n(C)n2cc(CC#N)nc12 (single isomer, unassigned) [Compound A70a]
420 nM	276 nM	CC[C@H]1CN(C(C)c2ccc(C3CC3)nc2)[C@H](CC)CN1c1c(C#N)c(=O)n(C)n2cc(CC#N)nc12 (single isomer, unassigned) [Compound A75a]
2000 nM	> 10000 nM	CC[C@H]1CN(C(C)c2ccc3nc(C)sc3n2)[C@H](CC)CN1c1cc(=O)n(C)n2cc(C=NOC)nc12 (single isomer, unassigned) [Compound A124a]
2710 nM	27 nM	CC(c1ccc2ncc(Cl)nc2c1)N1C[C@H](C)N(c2cc(=O)n(C)n3cc(CC#N)nc23)C[C@H]1C (stereo partly drawn) [Compound A21, 2-(8-((2S,5R)-4-(1-(3-chloroquinoxalin-6-yl)ethyl)-2,5-dimethylpiperazin-1-yl)-5-methyl-6-oxo-5,6-dihydroimidazo[1,2-b]pyridazin-2-yl)acetonitrile]
659 nM	638 nM	CC[C@H]1CN(C(C)c2ccc3nc(C)sc3c2)[C@H](CC)CN1c1cc(=O)n(C)n2cc(CC#N)nc12 (single isomer, unassigned) [Compound A56b]
118 nM	132 nM	CC#CCc1cn2c(n1)c(N1C[C@@H](CC)N(C(C)c3ccc4nc(C)sc4c3F)C[C@@H]1CC)cc(=O)n2C (single isomer, unassigned) [Compound A116a]
108 nM	24 nM	[2H]C([2H])([2H])n1c(=O)cc(N2C[C@@H](CC)N(C(C)c3ccc4nc(C)sc4c3)C[C@@H]2CC)c2nc(CC#N)cn21 (single isomer, unassigned) [Compound A94a]
